The results in this text go back to patent US20080275134A1, “Methods for Treatment of Retinal Degenerative Disease” (University of Washington, priority 2005, published 2008).

In one series the target is T1, LRAT (Bos taurus, UniProt Q9BGL2).
T1 construct: Purified RPE microsomes were the source of the enzymes; from tissue; host or cells: bovine retinal pigment epithelium microsomes
T1 sequence (Q9BGL2 1-230): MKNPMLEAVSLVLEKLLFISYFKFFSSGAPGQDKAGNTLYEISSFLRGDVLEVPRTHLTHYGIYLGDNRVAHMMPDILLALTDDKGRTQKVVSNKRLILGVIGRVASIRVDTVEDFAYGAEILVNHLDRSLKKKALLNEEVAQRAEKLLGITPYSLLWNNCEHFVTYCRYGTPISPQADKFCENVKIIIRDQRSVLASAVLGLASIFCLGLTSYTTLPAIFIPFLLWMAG
In words: LRAT reaction: formation of all-trans-retinyl esters by RPE microsomes. The format is biochemical, bovine. The note with it: all-trans-retinol substrate. On the procedure: To test if 11-cis-retinylamine (11-cis Ret-NH2) affects isomerization and esterification, an in vitro assay was employed. In this assay both of the all-trans-retinyl esters formed in the reaction catalyzed by LRAT and 11-cis-retinol production by isomerase were measured (6). Purified RPE microsomes were the source of the enzymes, and all-trans-retinol was the substrate. […] Inhibition of isomerization by Ret-NH2 is not due to binding of CRALBP or competition with 11-cis-retinol for binding to CRALBP. […] An increased concentration of all-trans-retinol lowered the level of inhibition, as illustrated in FIG. 2B. […] Dixon's and Lineweaver-Burk plots in the standard assay conditions yielded Ki=0.1 μM for Ret-NH2 when all-trans-retinol (KM=0.3 μM) was assumed to be a substrate. […] This estimated value reflects the very potent nature of the inhibition by 11-cis-Ret-NH2.
Materials—Fresh bovine eyes were obtained from a local slaughterhouse (Schenk Packing Co., Inc., Stanwood, Wash.). Preparation of bovine RPE microsomes was performed according to previously described methods (Stecher et al., J Biol Chem 274:8577-85, 1999). […]
Reaction conditions for isomerase and LRAT reaction—The isomerase reaction was performed essentially as described previously (Stecher et al., J Biol Chem 274:8577-85, 1999). […] The average values were used and the standard deviations were calculated.

For a further series, the target named is CRALBP (Homo sapiens, UniProt P12271). Kind of series: analysis of retinoids bound to CRALBP isolated from the reaction mixture. The format is binding.
CRALBP, sequence (P12271 whole entry, species assumed): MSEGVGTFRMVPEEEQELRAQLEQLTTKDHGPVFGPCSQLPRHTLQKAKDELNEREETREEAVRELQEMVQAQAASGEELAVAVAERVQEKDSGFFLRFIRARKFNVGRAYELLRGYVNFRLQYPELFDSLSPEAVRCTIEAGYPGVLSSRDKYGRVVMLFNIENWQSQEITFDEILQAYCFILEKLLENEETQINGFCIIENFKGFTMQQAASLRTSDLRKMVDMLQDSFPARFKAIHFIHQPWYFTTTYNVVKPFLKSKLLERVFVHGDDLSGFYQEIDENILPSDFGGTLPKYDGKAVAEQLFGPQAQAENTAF
The next series has as its system retinol dehydrogenases. Kind of series: direct assay of retinol dehydrogenases present in the RPE. The note with it: direct assays. The series is classed as biochemical.
The next series deals with T2, CYP26A1 (Homo sapiens, UniProt O43174).
T2 construct: expressed in transfected cells; host or cells: HEK-293
T2 sequence (O43174 1-497): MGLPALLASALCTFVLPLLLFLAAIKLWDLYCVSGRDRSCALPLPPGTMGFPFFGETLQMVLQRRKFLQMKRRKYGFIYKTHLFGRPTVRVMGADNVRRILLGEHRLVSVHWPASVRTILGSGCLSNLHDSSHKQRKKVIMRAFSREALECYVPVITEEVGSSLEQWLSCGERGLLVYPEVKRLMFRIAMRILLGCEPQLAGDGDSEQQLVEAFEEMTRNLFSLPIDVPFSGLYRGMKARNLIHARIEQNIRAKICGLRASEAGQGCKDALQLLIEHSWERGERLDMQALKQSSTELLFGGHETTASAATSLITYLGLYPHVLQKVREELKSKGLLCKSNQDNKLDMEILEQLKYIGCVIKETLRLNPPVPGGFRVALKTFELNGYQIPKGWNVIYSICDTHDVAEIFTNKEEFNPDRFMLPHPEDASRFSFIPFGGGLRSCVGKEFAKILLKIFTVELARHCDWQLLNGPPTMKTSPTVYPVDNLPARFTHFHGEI
Kind of series: oxidation in HEK-293 cells transfected with CYP26A1 cDNA. The series is classed as in vitro ADME. From the text: Next, the RA oxidation pathway was investigated. […] In addition to secretion, Ret-NH2 might be degraded first by deamination to all-trans-retinol/retinal, which was seen to increase in Ret-NH2 treated cells. […] These observations explain the long-lasting effect of RetNH2, as the amide is stored and hydrolyzed back to the free amine.

`CC1=C(/C=C/C(C)=C/C=C/C(C)=C/CN)C(C)(C)CCC1` [Ret-NH2, Retinylamine]: the “formation of all-trans-retinyl esters (LRAT activity)” value at LRAT is “does not inhibit”. The “binding to CRALBP” value on CRALBP was “does not bind”. Moreover, the “inhibition of retinol dehydrogenases” value in the series with retinol dehydrogenases is recorded as “did not inhibited”. Also, the “oxidation by CYP26A1” value on CYP26A1 is on record as “no evidence of the presence of hydroxy- or oxo-Ret-NH2”.
